Measured values taken from ChEMBL document CHEMBL1153899, “Discovery of benzothiazole derivatives as efficacious and enterocyte-specific MTP inhibitors” (Bioorg Med Chem Lett, 2009).
pIC50: −log10 of the molar value.

Legend:
[1] = Inhibition of MTP from dog liver microsomes by scintillation counting; design: species or system Canis lupus familiaris, Microsome
HepG2 = test: Inhibition of apoB secretion in human HepG2 cells after 40 hrs by ELISA; type: functional, cell-based; conditions: HepG2, 40 h

With CC(C)(C)c1ccc(-c2ccccc2C(=O)Nc2ccc3nc(C(=O)N[C@H](C(=O)N4CCCC4)c4ccccc4)sc3c2)cc1 the pIC50 [1] was 8.59 and the pIC50 (HepG2) was 8.82.
